The term Km denotes the substrate concentration at which the rate is half of its maximum.

The target of series [1] is WbpB (Pseudomonas aeruginosa, UniProt G3XD23). The series is described as follows: capillary electrophoresis of conversion to UDP-GlcNAc. Type of series: biochemical. To be noted: 10 mM α-KG, 50 mM HEPES pH 8.0, 30 °C, no WbpE.
The test system of series [2] is CC(=O)N[C@H]1[C@@H](OP(=O)(O)OP(=O)(O)OC[C@H]2O[C@@H](n3ccc(=O)[nH]c3=O)[C@H](O)[C@@H]2O)O[C@H](C(=O)O)[C@@H](O)[C@@H]1N. The series is described as follows: purified protein. Conditions: 1.5 mM AcCoA, 50 mM HEPES pH 7.0, 30 °C, BSA carrier.
Series [3] has as its target WbpE (Pseudomonas aeruginosa, UniProt Q9HZ76). Nature of the series: capillary electrophoresis, coupled WbpB/WbpE reaction. Type of series: biochemical. Conditions: 25 mM L-glutamine in place of L-glutamate; otherwise same.

Sequence of WbpB (G3XD23 whole entry): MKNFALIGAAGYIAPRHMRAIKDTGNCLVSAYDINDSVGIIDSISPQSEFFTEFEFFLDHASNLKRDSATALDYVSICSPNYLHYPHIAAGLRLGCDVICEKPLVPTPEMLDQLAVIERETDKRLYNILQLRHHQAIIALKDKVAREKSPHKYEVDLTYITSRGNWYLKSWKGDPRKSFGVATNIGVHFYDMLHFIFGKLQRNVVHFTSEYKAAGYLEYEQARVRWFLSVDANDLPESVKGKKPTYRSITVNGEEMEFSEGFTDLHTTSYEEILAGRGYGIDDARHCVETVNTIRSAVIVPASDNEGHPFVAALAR
Sequence of WbpE (Q9HZ76 whole entry): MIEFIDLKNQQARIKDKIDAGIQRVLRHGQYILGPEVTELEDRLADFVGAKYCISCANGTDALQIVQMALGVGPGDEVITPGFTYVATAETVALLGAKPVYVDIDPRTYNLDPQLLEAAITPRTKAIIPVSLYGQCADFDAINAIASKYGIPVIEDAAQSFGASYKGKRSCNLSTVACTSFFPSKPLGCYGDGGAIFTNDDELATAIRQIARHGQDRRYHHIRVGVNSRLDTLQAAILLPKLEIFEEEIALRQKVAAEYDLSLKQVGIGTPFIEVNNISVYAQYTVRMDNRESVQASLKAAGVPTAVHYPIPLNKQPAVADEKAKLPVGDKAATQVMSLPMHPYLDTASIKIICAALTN

For the compound `CC(=O)N[C@H]1[C@@H](OP(=O)(O)OP(=O)(O)OC[C@H]2O[C@@H](n3ccc(=O)[nH]c3=O)[C@H](O)[C@@H]2O)O[C@H](C(=O)O)[C@@H](O)[C@@H]1O` [UDP-GlcNAcA], the “capillary electrophoresis of conversion to UDP-GlcNAc(3keto)A” value in series [1] was “complete conversion of the UDP-GlcNAcA starting material to the UDP-GlcNAc(3keto)A product was observed by CE”.
In the case of WbpD (Pseudomonas aeruginosa PAO1), in series [2], the Km came out at 107 ± 15 µM and the kcat result was “(2.9 ± 0.12) × 10^3 min^−1”.
As for `NC(=O)CC[C@H](N)C(=O)O` [L-glutamine], the “% conversion at 25 mM” value in series [3] was found to be 10%.

For the origin of these results see PMC2694220 (Biochemistry, 2009).
